Data published in ChEMBL document CHEMBL5537134, “Targeting the pyruvate dehydrogenase complex/pyruvate dehydrogenase kinase (PDC/PDK) axis to discover potent PDK inhibitors through structure-based virtual screening and pharmacological evaluation” (Eur J Med Chem, 2024).
The source made the active and inactive calls. No cut-off for these calls is given here.

Tests used:
[1] = biological target: T1, [Pyruvate dehydrogenase (acetyl-transferring)] kinase isozyme 1, mitochondrial (Homo sapiens, UniProt Q15118); test: Inhibition of 6His-tagged full length PDK1 (unknown origin) expressed in Escherichia coli in presence of ATP by ELISA based kinase activity assay
T1 sequence (Q15118 whole entry): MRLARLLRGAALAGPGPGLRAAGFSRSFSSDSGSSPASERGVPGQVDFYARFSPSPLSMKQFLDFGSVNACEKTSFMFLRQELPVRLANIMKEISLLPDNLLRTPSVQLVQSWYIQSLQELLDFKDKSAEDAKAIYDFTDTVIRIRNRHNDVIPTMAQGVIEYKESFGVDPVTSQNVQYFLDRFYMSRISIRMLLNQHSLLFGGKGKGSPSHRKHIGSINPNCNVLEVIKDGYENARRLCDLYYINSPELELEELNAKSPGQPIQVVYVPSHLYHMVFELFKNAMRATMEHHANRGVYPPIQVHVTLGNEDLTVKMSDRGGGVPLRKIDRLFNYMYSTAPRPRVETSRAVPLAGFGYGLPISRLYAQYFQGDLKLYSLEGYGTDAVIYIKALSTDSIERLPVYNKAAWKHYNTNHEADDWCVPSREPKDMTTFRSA

[2] = tested on: A549; test: Antiproliferative activity against human A549 cells assessed as reduction in cell viability incubated for 72 hrs by CCK8 assay; assay type: functional, cell-based; conditions: A549, 72 h
[3] = Toxicity in Balb/c mouse assessed as pathological abnormality in heart at 50 mg/kg, ip administered for 7 days by hematoxylin and eosin staining based analysis; assay type: organism-based; conditions: in vivo, 168 h, time 7 day
[4] = tested on: A549; test: Induction of cell cycle arrest in human A549 cells assessed as accumulation of cells at G2 phase at 7.5 uM incubated for 24 hrs by Propidium Iodide staining based flow cytometry analysis (reference value: 13.19 %); assay type: functional
[5] = tested on: A549; test: Induction of cell cycle arrest in human A549 cells assessed as accumulation of cells at G2 phase at 10 uM incubated for 24 hrs by Propidium Iodide staining based flow cytometry analysis (reference value: 13.19 %); assay type: functional
[6] = tested on: Cell membrane; test: Induction of mitochondrial membrane depolarization in human A549 cells assessed as increase in oxygen consumption rate by Seahorse XFe96 extracellular flux analyzer method; assay type: cell membranes; conditions: dose 10-40 µM
[7] = tested on: A549; test: Induction of apoptosis in human A549 cells assessed as apoptotic cells at 20 uM incubated for 48 hrs by Annexin V-FITC/Propidium Iodide staining based flow cytometry analysis relative to control; assay type: functional
[8] = tested on: A549; test: Induction of cell cycle arrest in human A549 cells assessed as accumulation of cells at G1 phase at 7.5 uM incubated for 24 hrs by Propidium Iodide staining based flow cytometry analysis (reference value: 49.88 %); assay type: functional
[9] = tested on: Cell membrane; test: Induction of mitochondrial membrane depolarization in human A549 cells assessed as increase in JC-1 monomer incubated for 4 hrs by JC-1 staining based flow cytometry analysis; assay type: cell membranes; conditions: dose 5-20 µM
[10] = tested on: Cell membrane; test: Induction of mitochondrial membrane depolarization in human A549 cells assessed as disappearance of red fluorescence at 5 to 20 uM incubated for 4 hrs by TMRM staining based laser scanning confocal microscope analysis; assay type: cell membranes; conditions: dose 5-20 µM
[11] = Toxicity in Balb/c mouse assessed as pathological abnormality in spleen at 50 mg/kg, ip administered for 7 days by hematoxylin and eosin staining based analysis; assay type: organism-based; conditions: in vivo, 168 h, time 7 day
[12] = tested on: A549; test: Induction of cell cycle arrest in human A549 cells assessed as accumulation of cells at S phase at 7.5 uM incubated for 24 hrs by Propidium Iodide staining based flow cytometry analysis (reference value: 36.92 %); assay type: functional
[13] = tested on: A549; test: Induction of apoptosis in human A549 cells assessed as apoptotic cells at 5 uM incubated for 48 hrs by Annexin V-FITC/Propidium Iodide staining based flow cytometry analysis relative to control; assay type: functional
[14] = tested on: Cell membrane; test: Induction of mitochondrial membrane depolarization in human A549 cells assessed as increase in green fluorescence intensity at 5 to 20 uM incubated for 4 hrs by JC-1 staining based laser scanning confocal microscope analysis; assay type: cell membranes; conditions: dose 5-20 µM
[15] = tested on: A549; test: Induction of apoptosis in human A549 cells at 20 uM incubated for 12 hrs by Annexin V-FITC/Propidium Iodide staining based flow cytometry analysis relative to control; assay type: functional
[16] = Toxicity in Balb/c mouse assessed as pathological abnormality in kidney at 50 mg/kg, ip administered for 7 days by hematoxylin and eosin staining based analysis; assay type: organism-based; conditions: in vivo, 168 h, time 7 day
[17] = tested on: Cell membrane; test: Induction of mitochondrial membrane depolarization in human A549 cells assessed as decrease in extracellular acidification by Seahorse XFe96 extracellular flux analyzer method; assay type: cell membranes; conditions: dose 10-40 µM
[18] = tested on: A549; test: Antiproliferative activity against human A549 cells assessed as reduction in cell viability at 40 uM incubated for 72 hrs by MTT assay; assay type: functional, cell-based
[19] = biological target: [Pyruvate dehydrogenase (acetyl-transferring)] kinase isozyme 2, mitochondrial (Homo sapiens, UniProt Q15119); test: Inhibition of recombinant full length human PDK2 (1 to 407 residues) expressed in baculovirus infected Sf9 cells using PDHA1 as substrate incubated for 1 hrs in presence of ATP by ADP-Glo luminescence assay
[20] = tested on: A549; test: Induction of apoptosis in human A549 cells at 20 uM by Annexin V-FITC/Propidium Iodide staining based flow cytometry analysis; assay type: functional, cell-based; conditions: time 12-48 hrs, TDE = time-dependent effect
[21] = Toxicity in Balb/c mouse assessed as clinical signs at 50 mg/kg, ip administered for 7 days; assay type: organism-based; conditions: in vivo, 168 h, time 7 day
[22] = tested on: A549; test: Induction of apoptosis in human A549 cells at 20 uM incubated for 24 hrs by Annexin V-FITC/Propidium Iodide staining based flow cytometry analysis relative to control; assay type: functional
[23] = tested on: A549; test: Induction of apoptosis in human A549 cells assessed as apoptotic cells at 10 uM incubated for 48 hrs by Annexin V-FITC/Propidium Iodide staining based flow cytometry analysis relative to control; assay type: functional
[24] = tested on: A549; test: Induction of cell cycle arrest in human A549 cells assessed as accumulation of cells at G1 phase at 10 uM incubated for 24 hrs by Propidium Iodide staining based flow cytometry analysis (reference value: 49.88 %); assay type: functional
[25] = tested on: A549; test: Antiproliferative activity against human A549 cells assessed as reduction in cell viability incubated for 72 hrs under hypoxic condition by MTT assay; conditions: A549, 72 h
[26] = Toxicity in Balb/c mouse assessed as pathological abnormality in liver at 50 mg/kg, ip administered for 7 days by hematoxylin and eosin staining based analysis; assay type: organism-based; conditions: in vivo, 168 h, time 7 day
[27] = Toxicity in Balb/c mouse assessed as pathological abnormality in lung at 50 mg/kg, ip administered for 7 days by hematoxylin and eosin staining based analysis; assay type: organism-based; conditions: in vivo, 168 h, time 7 day
[28] = tested on: BEAS-2B; test: Cytotoxicity against human BEAS-2B cells assessed as reduction in cell viability upto 50 uM incubated for 72 hrs by MTT assay; assay type: toxicity, cell-based
[29] = tested on: A549; test: cells; conditions: Homo sapiens
Description: Anticancer activity against human A549 cells assessed as inhibition of cell growth incubated for 24 to 72 hrs by IncuCyte Zoom live cell imaging analysis

[30] = tested on: A549; test: Induction of cell cycle arrest in human A549 cells assessed as accumulation of cells at G2 phase at 5 uM incubated for 24 hrs by Propidium Iodide staining based flow cytometry analysis (reference value: 13.19 %); assay type: functional
[31] = Toxicity in Balb/c mouse assessed as death at 50 mg/kg, ip administered for 7 days; assay type: organism-based; conditions: in vivo, 168 h, time 7 day
[32] = tested on: A549; test: Induction of cell cycle arrest in human A549 cells assessed as accumulation of cells at S phase at 10 uM incubated for 24 hrs by Propidium Iodide staining based flow cytometry analysis (reference value: 36.92 %); assay type: functional
[33] = tested on: A549; test: Induction of apoptosis in human A549 cells incubated for 48 hrs by Annexin V-FITC/Propidium Iodide staining based flow cytometry analysis; assay type: functional, cell-based; conditions: dose 5-20 µM
[34] = tested on: Cell membrane; test: Induction of mitochondrial membrane depolarization in human A549 cells assessed as decrease in lactate formation incubated for 8 hrs by NovaBioprofile Flex analyzer method; assay type: cell membranes; conditions: dose 10-40 µM
[35] = Toxicity in Balb/c mouse assessed as change in body weight at 50 mg/kg, ip administered for 7 days; assay type: organism-based; conditions: in vivo, 168 h, time 7 day
[36] = tested on: A549; test: Induction of cell cycle arrest in human A549 cells assessed as accumulation of cells at S phase at 5 uM incubated for 24 hrs by Propidium Iodide staining based flow cytometry analysis (reference value: 36.92 %); assay type: functional
[37] = tested on: A549; test: Induction of cell cycle arrest in human A549 cells assessed as accumulation of cells at G1 phase at 5 uM incubated for 24 hrs by Propidium Iodide staining based flow cytometry analysis (reference value: 49.88 %); assay type: functional
[38] = tested on: A549; test: Anticancer activity against human A549 cells assessed as inhibition of cell growth at 20 uM by IncuCyte Zoom live cell imaging analysis; assay type: functional, cell-based; conditions: time 24-72 hrs, TDE = time-dependent effect
[39] = biological target: T1, [Pyruvate dehydrogenase (acetyl-transferring)] kinase isozyme 1, mitochondrial; test: Inhibition of recombinant full-length human PDK1 (1 to 436 residues) expressed in baculovirus infected Sf9 insect cells using PDHA1 as substrate at 10 uM incubated for 1 hrs in presence of ATP by Kinase-Glo luminescence assay
[40] = biological target: T1, [Pyruvate dehydrogenase (acetyl-transferring)] kinase isozyme 1, mitochondrial; test: Inhibition of recombinant full-length human PDK1 (1 to 436 residues) expressed in baculovirus infected Sf9 insect cells using PDHA1 as substrate incubated for 1 hrs in presence of ATP by Kinase-Glo luminescence assay
[41] = tested on: A549; test: Anticancer activity against human A549 cells assessed as reduction in cell growth at 20 uM by IncuCyte Zoom live cell imaging analysis; assay type: functional, cell-based
[42] = biological target: T1, [Pyruvate dehydrogenase (acetyl-transferring)] kinase isozyme 1, mitochondrial; test: Binding affinity to PDK1 (unknown origin) assessed as dissociation constant
[43] = biological target: T1, [Pyruvate dehydrogenase (acetyl-transferring)] kinase isozyme 1, mitochondrial; test: Binding affinity to PDK1 (unknown origin) assessed as dissociation constant in presence of 5-((4-chlorophenyl)sulfonamido)-N-(2-hydroxyethyl)-2,4-dimethylbenzenesulfonamide

`S=C(SSC(=S)N1CCOCC1)N1CCOCC1` gave an EC50 [1] of 49 nM and an IC50 [2] of less than 500 nM.

With `Cc1cc(C)c(S(=O)(=O)NCCO)cc1NS(=O)(=O)c1ccc(Cl)cc1` the Activity [3] was “Non-Toxic”, the Activity [4] was 7.98% and the Activity [5] was 1.58%. The Activity [6] was “Dose-Dependent Effect”, the Activity [7] was 80.5% and the Activity [8] was 49.65%. For the same compound, the Activity [9] was “Dose-Dependent Effect”, the Activity [10] was “Active” and the Activity [11] was “Non-Toxic”. For the same compound, the Activity [12] was 42.37%, the Activity [13] was 8.8% and the Activity [14] was “Active”. For the same compound, the Activity [15] was 10.8%, the Activity [16] was “Non-Toxic” and the Activity [17] was “Dose-Dependent Effect”. For the same compound, the Activity [18] was “Active”, the IC50 [19] was 136 nM and the Activity [20] was “Tde”. For the same compound, the Activity [21] was “Non-Toxic”, the Activity [22] was 60% and the Activity [23] was 23.8%. The Activity [24] was 47.77%, the IC50 [25] was 5670 nM and the Activity [26] was “Non-Toxic”. The Activity [27] was “Non-Toxic”, the Activity [28] was “Non-Toxic” and the EC50 [29] was 10700 nM. The Activity [30] was 12.31%, the Activity [31] was “Non-Toxic” and the Activity [32] was 50.66%. For the same compound, the Activity [33] was “Dose-Dependent Effect”, the Activity [34] was “Dose-Dependent Effect” and the Activity [35] was “Non-Toxic”. The Activity [36] was 32.44%, the Activity [37] was 55.25% and the Activity [38] was “Tde”.

In the case of `O=C(c1cccc(S(=O)(=O)Nc2cc(Cl)ccc2Cl)c1)N1CCN(CCO)CC1`, the inhibition [39] is reported as “Active”.

With `CN(C)C(=O)c1ccc(S(=O)(=O)c2ccc(NC(=O)[C@@](C)(O)C(F)(F)F)c(Cl)c2)cc1` the IC50 [40] was 32.3 nM, the Activity [5] was 13.47% and the Activity [41] was “inactive”. For the same compound, the Kd [42] was 148 nM, the IC50 [19] was 74.5 nM and the Activity [24] was 68.5%. For the same compound, the Kd [43] was 8900 nM and the Activity [32] was 18.03%.

In the case of `CC(C)[C@H](NC(=O)N1CCN(C(c2ccc(F)cc2)c2ccc(F)cc2)CC1)C(=O)O`, the Activity [18] is reported as “Active”.
